Laboratory results reported in patent US8765641B2, “Chip production, hybridization and data interpretation for antibody and protein microarrays” (Detroit R&D, Inc., priority 2004, dated 2014).
Values joined by “and” are separate entries in the source; they are usually repeats but may differ in a detail not shown here. Equal entries are not always repeated. Where two headings read alike, the source gives them in different places. Marks after values point to notes of the source that are not given here.

How the values were obtained:
CYP2B1/2B2 = assay: Western blot analysis of rat hepatic proteins after PB treatment; format: in vivo; design: key: Highly Induced: Not detected in control but strong band after PB treatment.; Moderately Induced: Not detected in control but bands with a medium intensity detected after PB treatment; settings: rat hepatic microsomal proteins, PB treated vs control
Procedure: (§1) SDS-PAGE was carried out on 10% or 15% gels. The separated proteins were electroblotted onto cellulose membrane and Western blot analyses were carried out using horseradish peroxidase-system with electrochemiluminescent substrates.
(§2) This microarray result was obtained by combining results from Control 1 and PB 1 assays and Control 2 and PB 2 assays. Expression levels of CYP2B1/2B2, CYP2B1, COX-2, CYP2D, CYP3A1/2/23, CYP2C11 and G3PDH in Rat #1 (Control 1), Rat #2 (PB 1), Rat #3 (Control 2) and Rat #4 (PB 2) were verified by Western blot analyses of microsomal and cytosolic proteins. Protein bands obtained by Western blot analyses were quantitated using a densitometer (Molecular Dynamics). […] COX-2 expression usually detected in microsomes also detected in cytosol. The cytosolic COX-2 levels were normalized by G3PDH levels.

CYP2D = assay: as above; format: in vivo; settings: rat hepatic microsomal proteins, PB treated vs control; two sets; mean and difference from the mean
Procedure: as §1, §2

CYP3A = assay: as above; format: in vivo; settings: rat hepatic microsomal proteins, PB treated vs control; two sets; mean and difference from the mean
Procedure: as §1, §2

CYP3A (CYP3A1/2/23) = settings: anti-serum spots, IgG concentration not given
Tubulin-alpha = settings: rat hepatic proteins after PB treatment, 500 μg/ml IgG (ascites fluid), Flag internal control
Alpha-actin = settings: rat hepatic proteins after PB treatment; 500 μg/ml IgG (ascites fluid); Flag internal control
Tubulin-beta = settings: rat hepatic proteins after PB treatment; 500 μg/ml IgG; Flag internal control

SMILES: CCC1(c2ccccc2)C(=O)NC(=O)NC1=O [phenobarbital]
- fold-increase of protein expression level, Western Blot Analysis, CYP2B1/2B2 (CYP2B1/2B2): Highly Induced^b
- fold-increase of protein expression level, Western Blot Analysis, CYP2D (CYP2D): failed to increase
- fold-increase of protein expression level, Western Blot Analysis, CYP3A (CYP3A): 7.00 ± 4.80^d fold
- CYP3A expression after phenobarbital treatment, array analysis (CYP3A (CYP3A1/2/23)): increased higher than two-fold
- Fold-Change of Protein Expression Level, Tubulin-alpha (Tubulin-alpha): 1.7 fold and 1.7^a fold
- Fold-Change of Protein Expression Level, Tubulin-alpha (Tubulin-alpha; listed as PB): 1.7 fold
- Fold-Change of Protein Expression Level, Alpha-actin (Alpha-actin): 0.8 fold
- Fold-Change of Protein Expression Level, Tubulin-beta (Tubulin-beta): 0.7 fold
